PubChem BioAssay (NCI)
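Results reflect a 48-hour exposure of cells in 96-well plates to compound at five concentrations. Abbreviation: GI50, concentration required for 50% inhibition of growth. Definition used: TGI = concentration required for complete inhibition of growth.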

Key:
Assay in all cases: NCI anticancer screen, dose series, 48 h
[1] = test system: HCC-2998 colon
[2] = test system: SNB-19 CNS
[3] = test system: IGROV1 ovarian
[4] = test system: SR leukemia
[5] = test system: HL-60(TB) leukemia
[6] = test system: SN12C renal
[7] = test system: 786-0 renal
[8] = test system: NCI/ADR-RES ovarian
[9] = test system: CAKI-1 renal
[10] = test system: DU-145 prostate
[11] = test system: SW-620 colon
[12] = test system: MDA-MB-231 breast
[13] = test system: K-562 leukemia
[14] = test system: SF-268 CNS
[15] = test system: UO-31 renal
[16] = test system: UACC-62 melanoma
[17] = test system: A549 NSCLC
[18] = test system: A498 renal
[19] = test system: CCRF-CEM leukemia
[20] = test system: U251 CNS
[21] = test system: OVCAR-3 ovarian
[22] = test system: MOLT-4 leukemia
[23] = test system: LOX IMVI melanoma
[24] = test system: RXF 393 renal
[25] = test system: NCI-H522 lung
[26] = test system: HOP-92 NSCLC
[27] = test system: SNB-75 CNS
[28] = test system: NCI-H23 lung
[29] = test system: UACC-257 melanoma
[30] = test system: SK-MEL-2 melanoma
[31] = test system: OVCAR-8 ovarian
[32] = test system: OVCAR-5 ovarian
[33] = test system: RPMI-8226 leukemia
[34] = test system: BT-549 breast
[35] = test system: ACHN renal
[36] = test system: PC-3 prostate
[37] = test system: COLO 205 colon
[38] = test system: MDA-MB-435
[39] = test system: EKVX NSCLC
[40] = test system: MALME-3M melanoma
[41] = test system: M14 melanoma
[42] = test system: HCT-15 colon
[43] = test system: HCT-116 colon
[44] = test system: SK-OV-3 ovarian
[45] = test system: HT29 colon
[46] = test system: T-47D breast
[47] = test system: HOP-62 NSCLC
[48] = test system: HS 578T breast
[49] = test system: MCF7 breast
[50] = test system: SF-539 CNS
[51] = test system: KM12 colon
[52] = test system: SK-MEL-28 melanoma
[53] = test system: NCI-H460 lung
[54] = test system: TK-10 renal
[55] = test system: SK-MEL-5 melanoma
[56] = test system: NCI-H226 lung
[57] = test system: SF-295 CNS
[58] = test system: OVCAR-4 ovarian

Compound `COc1ccc(C2C(C#N)=C(/N=C/c3ccc(Cl)cc3)Oc3c2sc2c(C)cccc32)cc1` (stereo unspecified) has a GI50 [1] of 1.91 µM, a TGI [1] of 5.99 µM and a GI50 [2] of 3.57 µM. The TGI [2] was 16.7 µM, the GI50 [3] was 2.27 µM and the TGI [3] was 17.4 µM. The GI50 [4] was 0.413 µM, the TGI [4] was 20.6 µM and the GI50 [5] was 0.433 µM. For the same compound, the TGI [5] was 2.94 µM, the GI50 [6] was 2.79 µM and the TGI [6] was 12.7 µM. The GI50 [7] was 4.34 µM, the TGI [7] was 28.2 µM and the GI50 [8] was 0.668 µM. For the same compound, the TGI [8] was 4.49 µM, the GI50 [9] was 4.03 µM and the TGI [9] was 22.3 µM. The GI50 [10] was 3.2 µM, the TGI [10] was 14 µM and the GI50 [11] was 1.11 µM. It also gave a TGI [11] of 16.3 µM, a GI50 [12] of 2.73 µM and a TGI [12] of 13.8 µM. It also gave a GI50 [13] of 0.404 µM, a TGI [13] greater than 100 µM and a GI50 [14] of 4.28 µM. The TGI [14] was 21.2 µM, the GI50 [15] was 1.97 µM and the TGI [15] was 16 µM. For the same compound, the GI50 [16] was 0.515 µM, the TGI [16] was 10.2 µM and the GI50 [17] was 2.22 µM. It also gave a TGI [17] of 28.9 µM, a GI50 [18] of 12.6 µM and a TGI [18] of 27.5 µM. For the same compound, the GI50 [19] was 3.01 µM, the TGI [19] was greater than 100 µM and the GI50 [20] was 2.96 µM. It also gave a TGI [20] of 14 µM, a GI50 [21] of 0.753 µM and a TGI [21] of 3.69 µM. It also gave a GI50 [22] of 3.37 µM, a TGI [22] of 28.7 µM and a GI50 [23] of 1.89 µM. The TGI [23] was 13.4 µM, the GI50 [24] was 2.12 µM and the TGI [24] was 10.5 µM. For the same compound, the GI50 [25] was 0.247 µM, the TGI [25] was 0.858 µM and the GI50 [26] was 1.69 µM. The TGI [26] was 18.1 µM, the GI50 [27] was 3.08 µM and the TGI [27] was 23.2 µM. The GI50 [28] was 2.34 µM, the TGI [28] was 12.6 µM and the GI50 [29] was 12.3 µM. For the same compound, the TGI [29] was 31.5 µM, the GI50 [30] was 2.17 µM and the TGI [30] was 13 µM. For the same compound, the GI50 [31] was 2.87 µM, the TGI [31] was 11.4 µM and the GI50 [32] was 2.81 µM. It also gave a TGI [32] of 12.4 µM, a GI50 [33] of 3.21 µM and a TGI [33] of 18.5 µM. The GI50 [34] was 1.21 µM, the TGI [34] was 18.8 µM and the GI50 [35] was 3.94 µM. For the same compound, the TGI [35] was 17.8 µM, the GI50 [36] was 2.01 µM and the TGI [36] was 18.1 µM. It also gave a GI50 [37] of 2.59 µM, a TGI [37] of 6.96 µM and a GI50 [38] of 0.312 µM. The TGI [38] was 0.993 µM, the GI50 [39] was 3.87 µM and the TGI [39] was 17.3 µM. For the same compound, the GI50 [40] was 2.28 µM, the TGI [40] was 19.8 µM and the GI50 [41] was 1.59 µM. For the same compound, the TGI [41] was 10.8 µM, the GI50 [42] was 0.731 µM and the TGI [42] was 10.5 µM. It also gave a GI50 [43] of 1.55 µM, a TGI [43] of 13.4 µM and a GI50 [44] of 3.12 µM. The TGI [44] was 17.5 µM, the GI50 [45] was 2.76 µM and the TGI [45] was 8.76 µM. For the same compound, the GI50 [46] was 1.77 µM, the TGI [46] was 23.1 µM and the GI50 [47] was 4.07 µM. It also gave a TGI [47] of 19.7 µM, a GI50 [48] of 2.44 µM and a TGI [48] of 19.1 µM. The GI50 [49] was 0.549 µM, the TGI [49] was 21.4 µM and the GI50 [50] was 1.31 µM. It also gave a TGI [50] of 3.54 µM, a GI50 [51] of 1.4 µM and a TGI [51] of 12.6 µM. It also gave a GI50 [52] of 1.51 µM, a TGI [52] of 18.8 µM and a GI50 [53] of 1.71 µM. The TGI [53] was 12.8 µM, the GI50 [54] was 12.5 µM and the TGI [54] was 37.1 µM. For the same compound, the GI50 [55] was 1.44 µM, the TGI [55] was 13.1 µM and the GI50 [56] was 6.02 µM. The TGI [56] was 24.3 µM, the GI50 [57] was 1.19 µM and the TGI [57] was 10.3 µM. It also gave a GI50 [58] of 3.4 µM and a TGI [58] of 25.9 µM.
